Reference: US10633419B2, “Immunomodulators” (BRISTOL-MYERS SQUIBB COMPANY, priority 2014, dated 2020)
Starred links: 1 amine or outer side, 2 acyl side, 3 side chain; linkers in the order of their positions; H or OH if unused. Positions of bridges follow the written chain, without caps; N, C: chain ends. Non-standard residues stand in square brackets, D forms with d. Residues, ends and D or L forms follow the SMILES beside them. ξ: configuration not given here. *: point of attachment. δOrn(Nα-Octadecanedioyl) = O=C(O)CCCCCCCCCCCCCCCCC(=O)N[C@@H](CCCN*)C(=O)O; Dap(Nα-HOOC(CH2)16CO)OH = O=C(O)CCCCCCCCCCCCCCCCC(=O)N[C@@H](CN*)C(=O)O; Trp(1-CH2COOH) = N[C@@H](Cc1cn(CC(=O)O)c2ccccc12)C(=O)O; X9 = O=C(O)CCCCCCCCCCCCCCCCC(=O)N[C@@H](CCN*)C(=O)O; X26 = O=C(O)Cn1cc(CC(N[*:1])C(=O)[*:2])c2ccccc21; NH(CH2)16COOH = O=C(O)CCCCCCCCCCCCCCCCN*; βAsp = O=C(O)[C@H](CC(=O)[*:2])N[*:1]; ξPro(4R-OH) = O=C(O)C1C[C@@H](O)CN1; PEG6 = NCCOCCOCCOCCOCCOCCOCCC(=O)O; Hyp = O=C(O)[CH]1C[CH](O)CN1; Myristoyl = CCCCCCCCCCCCCC(=O)*; Undecanoyl = CCCCCCCCCCC(=O)*; NMeNle = CCCC[CH](NC)C(=O)O; Pip = O=C(O)[C@@H]1CCCCN1; NMeA = CN[CH](C)C(=O)O; Aun = NCCCCCCCCCCC(=O)O; Dab = NCC[CH](N)C(=O)O; Dap = NC[CH](N)C(=O)O; ξC = NC(CS)C(=O)O; βAla = NCCC(=O)O

Molecular target: T1, PD-L1 (Homo sapiens, UniProt Q9NZQ7)
T1 construct: hPDL1(19-239)-TVMV-His; made in house; host or cells: HEK293T
Experiment: PD-1/PD-L1 Homogenous Time-Resolved Fluorescence (HTRF) binding assay (PD-1-Ig/PD-L1-His)
Conditions: not given
Outline: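 Inhibitors pre-incubated 15 min with PD-L1-His (10 nM final), then PD-1-Ig (20 nM final) added for 15 min in dPBS/0.1% BSA/0.05% Tween-20. Eu-cryptate anti-Ig (1 nM) and APC anti-His (20 nM) added, 30 min equilibration, 665/620 nm HTRF ratio read.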

T1 sequence (Q9NZQ7 with tags, fused parts or gaps): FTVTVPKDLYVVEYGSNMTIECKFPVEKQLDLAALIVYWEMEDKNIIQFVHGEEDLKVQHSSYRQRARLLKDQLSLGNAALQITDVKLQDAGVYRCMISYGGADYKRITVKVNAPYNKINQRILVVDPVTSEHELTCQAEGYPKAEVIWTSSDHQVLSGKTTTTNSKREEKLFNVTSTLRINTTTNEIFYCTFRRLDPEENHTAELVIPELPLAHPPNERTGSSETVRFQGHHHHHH

Row | SMILES | IC50 [µM]
1 | CCCC[C@H]1C(=O)N(C)[C@@H](CCCC)C(=O)N[C@@H](CCC(=O)O)C(=O)N[C@H](C(=O)NCC(=O)N[C@@H](Cc2cn(CCOCCOCCOCCOCCOCCOC(=O)CCC(=O)Oc3c(C)c(C)c4c(c3C)CC[C@@](C)(CCC[C@H](C)CCC[C@H](C)CCCC(C)C)O4)nn2)C(=O)NCC(N)=O)CSCC(=O)N[C@@H](Cc2ccc(O)cc2)C(=O)N(C)[C@@H](C)C(=O)N[C@@H](CC(=O)O)C(=O)N2CCC[C@H]2C(=O)N[C@@H](Cc2c[nH]cn2)C(=O)N[C@@H](CCCCN)C(=O)N2C[C@H](O)C[C@H]2C(=O)N[C@@H](Cc2c[nH]c3ccccc23)C(=O)N[C@@H](CCCCN)C(=O)N[C@@H](Cc2c[nH]c3ccccc23)C(=O)N1C [Example 14053] | 0.1 to 1.6

Same assay, conditions: inhibition of PD-1-Ig binding to PD-L1-TVMV-His; value given as number; read-out: HTRF IC50

Row | SMILES | IC50 [µM]
2 | CCCCCCCCCCC(=O)NCCCC[C@H](NC(=O)[C@H](CC(=O)O)NC(=O)CNC(=O)CNC(=O)CNC(=O)[C@@H]1CSCC(=O)N[C@@H](Cc2ccc(O)cc2)C(=O)N(C)[C@@H](C)C(=O)N[C@@H](CC(N)=O)C(=O)N2CCC[C@H]2C(=O)N[C@@H](CCN)C(=O)N[C@@H](CC(C)C)C(=O)N2C[C@H](O)C[C@H]2C(=O)N[C@@H](Cc2c[nH]c3ccccc23)C(=O)N[C@@H](CO)C(=O)N[C@@H](Cc2c[nH]c3ccccc23)C(=O)N(C)[C@@H](CCCC)C(=O)N(C)[C@@H](CCCC)C(=O)N[C@@H](CCCNC(=N)N)C(=O)N1)C(N)=O [Example 11003] ({CH2CO}-Y[NMeA]NP[Dab]L[Hyp]WSW[NMeNle][NMeNle]RCGGGDK(Undecanoyl)-NH2; thioether N-14) | 0.0546
3 | CCCC[C@H]1C(=O)N(C)[C@@H](CCCC)C(=O)N[C@@H](CC(C)C)C(=O)N[C@H](C(=O)NCC(=O)NCC(=O)NCC(=O)NCCCCCCCCCCC(=O)O)CSCC(=O)N[C@@H](Cc2ccc(O)cc2)C(=O)N(C)[C@@H](C)C(=O)N[C@@H](CCC(=O)O)C(=O)N2CCC[C@H]2C(=O)N[C@@H](Cc2cnc[nH]2)C(=O)N[C@@H](CCCCN)C(=O)N2C[C@H](O)C[C@H]2C(=O)N[C@@H](Cc2c[nH]c3ccccc23)C(=O)N[C@@H](CCCCN)C(=O)N[C@@H](Cc2cn(CC(=O)O)c3ccccc23)C(=O)N1C [Example 11092] ({CH2CO}-Y[NMeA]EPHK[Hyp]WK[Trp(1-CH2COOH)][NMeNle][NMeNle]LCGGG[Aun]-OH; thioether N-14) | 0.0135
4 | CCCCC1C(=O)N(C)C(CCCC)C(=O)NC(CC(C)C)C(=O)NC(C(=O)NCC(=O)NCCCCCCCCCCCCCCCCC(=O)O)CSCC(=O)NC(Cc2ccc(O)cc2)C(=O)N(C)C(C)C(=O)NC(CC(N)=O)C(=O)N2CCCC2C(=O)NC(CN)C(=O)NC(CC(C)C)C(=O)N2CC(O)CC2C(=O)NC(Cc2c[nH]c3ccccc23)C(=O)NC(CCN)C(=O)NC(Cc2cn(CC(=O)O)c3ccccc23)C(=O)N1C (stereo not shown) [Example 11188] ({CH2CO}-Y[NMeA]NP[Dap]L[Hyp]W[Dab][X26][NMeNle][NMeNle]LCG-{NH(CH2)16COOH}; thioether N-14; configuration not given here) | 0.28

Same assay, conditions: inhibition of PD-1-Ig binding to PD-L1-TVMV-His; value given as range class; read-out: HTRF IC50

Row | SMILES | IC50 [µM]
5 | CCCC[C@H]1C(=O)N(C)[C@@H](CCCC)C(=O)N[C@@H](CC(C)C)C(=O)N[C@H](C(=O)NCC(=O)N[C@@H](CC(=O)NCCC(=O)NCC[C@H](NC(=O)CCCCCCCCCCCCCCCCC(=O)O)C(=O)O)C(=O)O)CSCC(=O)N[C@@H](Cc2ccc(O)cc2)C(=O)N2CCCC[C@H]2C(=O)N[C@@H](CC(N)=O)C(=O)N2CCC[C@H]2C(=O)N[C@@H](CN)C(=O)N[C@@H](CC(C)C)C(=O)N2C[C@H](O)C[C@H]2C(=O)N[C@@H](Cc2c[nH]c3ccccc23)C(=O)N[C@@H](CCN)C(=O)N[C@@H](Cc2cn(CC(=O)O)c3ccccc23)C(=O)N1C [Example 13160] ({CH2CO}-Y[Pip]NP[Dap]L[Hyp]W[Dab][Trp(1-CH2COOH)][NMeNle][NMeNle]LCG[βAsp][βAla]-X9; thioether N-14) | 0.0003 to 0.0099
6 | CCCC[C@H]1C(=O)N(C)[C@@H](CCCC)C(=O)N[C@@H](CC(C)C)C(=O)N[C@H](C(=O)NCC(=O)NCC(=O)NCC(=O)NCCCCCCCCCCC(=O)O)CSCC(=O)N[C@@H](Cc2ccc(O)cc2)C(=O)N(C)[C@@H](C)C(=O)N[C@@H](CC(=O)O)C(=O)N2CCC[C@H]2C(=O)N[C@@H](CN)C(=O)N[C@@H](CCC(N)=O)C(=O)N2C[C@H](O)C[C@H]2C(=O)N[C@@H](Cc2c[nH]c3ccccc23)C(=O)N[C@@H](CCN)C(=O)N[C@@H](Cc2cn(CC(=O)O)c3ccccc23)C(=O)N1C [Example 11095] ({CH2CO}-Y[NMeA]DP[Dap]Q[Hyp]W[Dab][Trp(1-CH2COOH)][NMeNle][NMeNle]LCGGG[Aun]-OH; thioether N-14) | 0.0003 to 0.0099
7 | CCCC[C@H]1C(=O)N(C)[C@@H](CCCC)C(=O)N[C@@H](CC(C)C)C(=O)N[C@H](C(=O)N[C@@H](Cc2cn(CCC(NC(=O)CCCCCCCCCCCCCCCCC(=O)O)C(=O)O)nn2)C(=O)O)CSCC(=O)N[C@@H](Cc2ccc(O)cc2)C(=O)N(C)[C@@H](C)C(=O)N[C@@H](CC(N)=O)C(=O)N2CCC[C@H]2C(=O)N[C@@H](CN)C(=O)N[C@@H](CC(C)C)C(=O)N2C[C@H](O)C[C@H]2C(=O)N[C@@H](Cc2c[nH]c3ccccc23)C(=O)N[C@@H](CCN)C(=O)N[C@@H](Cc2cn(CC(=O)O)c3ccccc23)C(=O)N1C (stereo partly shown) [Example 13129] | 0.01 to 0.099
8 | CCCC[C@H]1C(=O)N(C)[C@@H](CCCC)C(=O)N[C@@H](CC(C)C)C(=O)N[C@H](C(=O)NCC(=O)N[C@@H](Cc2cn(CCOCCOCCOCCOCCOCCOCCOCCOCCOCCOCCOCCNC(=O)CC[C@H](NC(=O)CCCCCCCCCCCCCCCCC(=O)O)C(=O)O)nn2)C(=O)O)CSCC(=O)N[C@@H](Cc2ccc(O)cc2)C(=O)N2CCCC[C@H]2C(=O)N[C@@H](CC(N)=O)C(=O)N2CCC[C@H]2C(=O)N[C@@H](CNC)C(=O)N[C@@H](CC(C)C)C(=O)N2C[C@H](O)C[C@H]2C(=O)N[C@@H](Cc2c[nH]c3ccccc23)C(=O)N[C@@H](CCN)C(=O)N[C@@H](Cc2cn(CC(=O)O)c3ccccc23)C(=O)N1C [Example 14105] | 0.1 to 1.6
9 | CCCCCCCCCCC(=O)NCCCC[C@H](NC(=O)[C@H](CCC(=O)O)NC(=O)CNC(=O)[C@@H]1CSCC(=O)N[C@@H](Cc2ccc(O)cc2)C(=O)N(C)[C@@H](C)C(=O)N[C@@H](CC(N)=O)C(=O)N2CCC[C@H]2C(=O)N[C@@H](Cc2cnc[nH]2)C(=O)N[C@@H](CCC(=O)O)C(=O)N2C[C@H](O)C[C@H]2C(=O)N[C@@H](Cc2c[nH]c3ccccc23)C(=O)N[C@@H](CO)C(=O)N[C@@H](Cc2c[nH]c3ccccc23)C(=O)N(C)[C@@H](CCCC)C(=O)N(C)[C@@H](CCCC)C(=O)N[C@@H](CC(C)C)C(=O)N1)C(N)=O [Example 11010] ({CH2CO}-Y[NMeA]NPHE[Hyp]WSW[NMeNle][NMeNle]LCGEK(Undecanoyl)-NH2; thioether N-14) | 0.01 to 0.099
10 | CCCC[C@H]1C(=O)N(C)[C@@H](CCCC)C(=O)N[C@@H](CC(C)C)C(=O)N[C@H](C(=O)NCC(=O)N[C@@H](CCC(=O)NCCC[C@H](NC(=O)CCCCCCCCCCCCCCCCC(=O)O)C(=O)O)C(=O)O)CSCC(=O)N[C@@H](Cc2ccc(O)cc2)C(=O)N2CCCC[C@H]2C(=O)N[C@@H](CC(N)=O)C(=O)N2CCC[C@H]2C(=O)N[C@@H](CN)C(=O)N[C@@H](CC(C)C)C(=O)N2C[C@H](O)C[C@H]2C(=O)N[C@@H](Cc2c[nH]c3ccccc23)C(=O)N[C@@H](CCN)C(=O)N[C@@H](Cc2cn(CC(=O)O)c3ccccc23)C(=O)N1C [Example 13142] ({CH2CO}-Y[Pip]NP[Dap]L[Hyp]W[Dab][Trp(1-CH2COOH)][NMeNle][NMeNle]LCGE(δOrn(Nα-Octadecanedioyl))-OH; thioether N-14) | 0.1 to 1.6
11 | CCCC[C@H]1C(=O)N(C)[C@@H](CCCC)C(=O)N[C@@H](CC(C)C)C(=O)C[C@H](C(=O)NCC(=O)N[C@@H](CC(=O)O)C(=O)NC[C@H](NC(=O)CCCCCCCCCCCCCCCCC(=O)O)C(=O)O)CSCC(=O)N[C@@H](Cc2ccc(O)cc2)C(=O)N(C)[C@@H](C)C(=O)N[C@@H](CC(N)=O)C(=O)N2CCC[C@H]2C(=O)N[C@@H](CN)C(=O)N[C@@H](CC(C)C)C(=O)N2C[C@H](O)C[C@H]2C(=O)N[C@@H](Cc2c[nH]c3ccccc23)C(=O)N[C@@H](CCN)C(=O)N[C@@H](Cc2cn(CC(=O)O)c3ccccc23)C(=O)N1C [Example 11185] | 0.01 to 0.099
12 | CCCCCCCCCCCCCC(=O)NCCCC[C@H](NC(=O)CCOCCOCCOCCOCCOCCOCCNC(=O)CNC(=O)C1CSCC(=O)N[C@@H](Cc2ccc(O)cc2)C(=O)N(C)[C@@H](C)C(=O)N[C@@H](CC(=O)O)C(=O)N2CCC[C@H]2C(=O)N[C@@H](Cc2cnc[nH]2)C(=O)N[C@@H](CC(C)C)C(=O)N2C[C@H](O)C[C@H]2C(=O)N[C@@H](Cc2c[nH]c3ccccc23)C(=O)N[C@@H](CO)C(=O)N[C@@H](Cc2c[nH]c3ccccc23)C(=O)N(C)[C@@H](CCCC)C(=O)N(C)[C@@H](CCCC)C(=O)N[C@@H](CCCNC(=N)N)C(=O)N1)C(N)=O (stereo partly shown) [Example 11015] ({CH2CO}-Y[NMeA]DPHL[Hyp]WSW[NMeNle][NMeNle]R[ξC]G[PEG6]K(Myristoyl)-NH2; thioether N-14) | 0.01 to 0.099
13 | CCCC[C@H]1C(=O)N(C)[C@@H](CCCC)C(=O)N[C@@H](CC(C)C)C(=O)N[C@H](C(=O)NCC(=O)N[C@@H](CCC(=O)O)C(=O)NCCOCCOCCOCCOCCOCCOCCC(=O)NC[C@H](NC(=O)CCCCCCCCCCCCCCCCC(=O)O)C(=O)O)CSCC(=O)N[C@@H](Cc2ccc(O)cc2)C(=O)N(C)[C@@H](C)C(=O)N[C@@H](CC(N)=O)C(=O)N2CCC[C@H]2C(=O)N[C@@H](CN)C(=O)N[C@@H](CC(C)C)C(=O)N2C[C@H](O)CC2C(=O)N[C@@H](Cc2c[nH]c3ccccc23)C(=O)N[C@@H](CCN)C(=O)N[C@@H](Cc2cn(CC(=O)O)c3ccccc23)C(=O)N1C (stereo partly drawn) [Example 11182] ({CH2CO}-Y[NMeA]NP[Dap]L[ξPro(4R-OH)]W[Dab][Trp(1-CH2COOH)][NMeNle][NMeNle]LCGE[PEG6]-{Dap(Nα-HOOC(CH2)16CO)OH}; thioether N-14) | 0.1 to 1.6
